Our source for the IC50 and pKa values is paper PMC7013731, “Elucidating the Structural Basis of the Intracellular pH Sensing Mechanism of TASK-2 K2P Channels” (International Journal of Molecular Sciences, 2020).

One data set addresses T1, TASK-2 (Mus musculus, UniProt Q9JK62).
T1 construct: gene Kcnk5; full-length TASK-2 plasmid transiently expressed in HEK-293 cells with separate GFP marker plasmid; homodimer
T1 sequence (Q9JK62 1-502): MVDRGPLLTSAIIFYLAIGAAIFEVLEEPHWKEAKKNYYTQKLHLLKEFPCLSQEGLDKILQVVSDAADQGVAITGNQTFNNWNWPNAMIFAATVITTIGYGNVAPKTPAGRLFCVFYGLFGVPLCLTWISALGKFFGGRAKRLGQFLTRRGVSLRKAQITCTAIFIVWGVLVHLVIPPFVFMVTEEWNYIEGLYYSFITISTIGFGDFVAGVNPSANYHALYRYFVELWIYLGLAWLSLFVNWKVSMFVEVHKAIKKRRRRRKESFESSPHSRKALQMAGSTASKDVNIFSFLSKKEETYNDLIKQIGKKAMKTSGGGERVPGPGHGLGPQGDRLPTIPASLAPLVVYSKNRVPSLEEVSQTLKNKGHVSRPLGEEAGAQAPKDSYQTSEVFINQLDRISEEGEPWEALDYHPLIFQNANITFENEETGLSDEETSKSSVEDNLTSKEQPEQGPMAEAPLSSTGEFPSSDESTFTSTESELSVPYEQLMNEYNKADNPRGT
As to the kind of experiment: whole-cell patch clamp, transfected HEK-293 cells. Type of data set: cell-based.

Another data set addresses Lys245 (UniProt position 245, LFVNWKVSMFV). The data set can be described thus: electrophysiology. Particulars: wild-type channel, gating by intracellular pH (pHi); cited from earlier work.

As a reminder, the IC50 is the concentration needed to halve the response being measured. The compound `NCCC(Oc1ccc(C(F)(F)F)cc1)c1ccccc1` (racemic) [norfluoxetine] came in with a concentration for half-maximal inhibition (IC50) on TASK-2 of 17 ± 5 µM. One may read the pKa as the negative logarithm of the acid dissociation constant. Regarding “TASK-2 (K2P5.1, TWIK-related acid-sensitive K+ channel 2) (Mus musculus (inferred from GenBank AF319542; species not stated in the article))”, the pKa with Lys245 is reported as approximately 8.0.
